Measurements reported in the NIST ThermoML archive (doi:10.1016/j.jct.2007.05.015).
Numbers after ± are expanded uncertainties.

What was measured:
[1] = 298.15 K; 101 kPa; Liquid
[2] = xn = mol fraction of the nth substance listed; details: 298.15 K, 101 kPa, Liquid

O=C1CCCN1 [2-pyrrolidinone]
[1]
Details | mass density [kg/m3] | speed of sound [m/s]
– | 1107.52 ± 1.4 | 1633.7 ± 6.4

O=C1CCCN1 [2-pyrrolidinone] + O
[2]
Details | mass density [kg/m3] | speed of sound [m/s]
x1 = 0.03793 | 1015.26 ± 0.6 | 1577.4 ± 6.1
x1 = 0.05001 | 1020.61 ± 0.63 | 1597.6 ± 6.2
x1 = 0.07966 | 1032.48 ± 0.71 | 1632.1 ± 6.3
x1 = 0.1093 | 1042.93 ± 0.77 | 1670 ± 6.4
x1 = 0.122 | 1046.78 ± 0.8 | 1684.5 ± 6.5
x1 = 0.1582 | 1056.77 ± 0.87 | 1708 ± 6.5
x1 = 0.1789 | 1062.24 ± 0.9 | 1716.5 ± 6.6
x1 = 0.2155 | 1070.34 ± 0.96 | 1726.6 ± 6.6
x1 = 0.2352 | 1074.91 ± 0.99 | 1732.1 ± 6.6
x1 = 0.2473 | 1077.08 ± 1 | 1735.2 ± 6.6
x1 = 0.2794 | 1081.92 ± 1 | 1737.3 ± 6.6
x1 = 0.3497 | 1088.62 ± 1.1 | 1735.5 ± 6.6
x1 = 0.4199 | 1093.46 ± 1.1 | 1727.8 ± 6.6
x1 = 0.5013 | 1097.41 ± 1.2 | 1715.8 ± 6.6
x1 = 0.549 | 1099.18 ± 1.2 | 1708.8 ± 6.6
x1 = 0.6133 | 1101.6 ± 1.2 | 1698.7 ± 6.5
x1 = 0.6705 | 1102.82 ± 1.3 | 1683.4 ± 6.5
x1 = 0.7037 | 1103.16 ± 1.3 | 1678.5 ± 6.5
x1 = 0.8117 | 1105.88 ± 1.3 | 1658 ± 6.4
x1 = 0.8353 | 1106.12 ± 1.3 | 1654.6 ± 6.4
x1 = 0.8593 | 1106.38 ± 1.4 | 1651.3 ± 6.4
x1 = 0.8813 | 1106.59 ± 1.4 | 1647.9 ± 6.4
x1 = 0.9413 | 1107.13 ± 1.4 | 1640.7 ± 6.4
x1 = 1 | 1107.52 ± 1.4 | 1633.7 ± 6.4

CC(=O)N(C)C [N,N-dimethylethanamide]
[1]
Details | mass density [kg/m3] | speed of sound [m/s]
– | 936.34 ± 1.8 | 1455.9 ± 5.8

CC(=O)N(C)C [N,N-dimethylethanamide] + O
[2]
Details | mass density [kg/m3] | speed of sound [m/s]
x1 = 0.00083 | 996.94 ± 1 | 1499.8 ± 5.9
x1 = 0.00163 | 996.87 ± 1 | 1502.4 ± 5.9
x1 = 0.03959 | 995.84 ± 1.1 | 1616.2 ± 6.2
x1 = 0.055 | 996.37 ± 1 | 1645.5 ± 6.3
x1 = 0.06456 | 996.62 ± 1 | 1663.2 ± 6.4
x1 = 0.08126 | 997.29 ± 1 | 1678.6 ± 6.4
x1 = 0.1 | 997.94 ± 1 | 1700.3 ± 6.5
x1 = 0.1208 | 998.5 ± 1 | 1717.9 ± 6.6
x1 = 0.1447 | 998.68 ± 1 | 1730.7 ± 6.6
x1 = 0.1714 | 998.55 ± 1 | 1737.9 ± 6.6
x1 = 0.2012 | 997.61 ± 1 | 1749.4 ± 6.7
x1 = 0.2381 | 995.72 ± 1.1 | 1734.5 ± 6.6
x1 = 0.2761 | 992.03 ± 1.1 | 1719.7 ± 6.6
x1 = 0.3245 | 988.32 ± 1.1 | 1703.6 ± 6.5
x1 = 0.3783 | 985.12 ± 1.2 | 1682.1 ± 6.5
x1 = 0.4137 | 982.41 ± 1.2 | 1669 ± 6.4
x1 = 0.452 | 979.26 ± 1.3 | 1653.4 ± 6.4
x1 = 0.4832 | 975.57 ± 1.3 | 1638.2 ± 6.3
x1 = 0.5372 | 969.73 ± 1.4 | 1605.4 ± 6.2
x1 = 0.583 | 965.29 ± 1.4 | 1586.8 ± 6.2
x1 = 0.6496 | 959.34 ± 1.5 | 1559.2 ± 6.1
x1 = 0.7074 | 953.42 ± 1.6 | 1534.2 ± 6
x1 = 0.7633 | 949.72 ± 1.6 | 1522 ± 6
x1 = 0.8342 | 946.12 ± 1.7 | 1489 ± 5.9
x1 = 0.9053 | 940.96 ± 1.8 | 1482.2 ± 5.8
x1 = 1 | 936.34 ± 1.8 | 1455.9 ± 5.8

CNC=O [N-methylformamide]
[1]
Details | mass density [kg/m3] | speed of sound [m/s]
– | 999.06 ± 0.7 | 1431.9 ± 3.4

CNC=O [N-methylformamide] + O
[2]
Details | mass density [kg/m3] | speed of sound [m/s]
x1 = 0.01572 | 999.1 ± 0.5 | 1518.7 ± 3.4
x1 = 0.03276 | 1001.38 ± 0.51 | 1538.8 ± 3.4
x1 = 0.05095 | 1003.6 ± 0.52 | 1557.2 ± 3.4
x1 = 0.07104 | 1005.91 ± 0.54 | 1574.1 ± 3.4
x1 = 0.09226 | 1007.87 ± 0.55 | 1582.7 ± 3.5
x1 = 0.1156 | 1010.1 ± 0.57 | 1591.3 ± 3.5
x1 = 0.141 | 1011.91 ± 0.58 | 1601.6 ± 3.5
x1 = 0.1714 | 1013.58 ± 0.59 | 1606.1 ± 3.5
x1 = 0.2005 | 1014.89 ± 0.61 | 1606.2 ± 3.5
x1 = 0.2339 | 1015.73 ± 0.61 | 1603.4 ± 3.5
x1 = 0.2714 | 1016.31 ± 0.62 | 1598.8 ± 3.5
x1 = 0.3047 | 1016.34 ± 0.63 | 1594 ± 3.5
x1 = 0.3185 | 1016.28 ± 0.63 | 1589.3 ± 3.5
x1 = 0.3367 | 1016.3 ± 0.63 | 1583.7 ± 3.5
x1 = 0.3615 | 1015.86 ± 0.63 | 1573 ± 3.5
x1 = 0.3853 | 1015.45 ± 0.63 | 1560.7 ± 3.5
x1 = 0.4166 | 1014.47 ± 0.63 | 1551.9 ± 3.5
x1 = 0.4456 | 1013.64 ± 0.63 | 1542.9 ± 3.4
x1 = 0.4785 | 1012.83 ± 0.63 | 1534.2 ± 3.4
x1 = 0.5109 | 1011.92 ± 0.63 | 1526.4 ± 3.4
x1 = 0.5497 | 1010.88 ± 0.64 | 1514.7 ± 3.4
x1 = 0.5805 | 1010.04 ± 0.64 | 1507.5 ± 3.4
x1 = 0.5913 | 1009.49 ± 0.64 | 1502.6 ± 3.4
x1 = 0.6164 | 1008.9 ± 0.64 | 1497.2 ± 3.4
x1 = 0.6335 | 1008.22 ± 0.64 | 1493.1 ± 3.4
x1 = 0.681 | 1006.72 ± 0.64 | 1480.6 ± 3.4
x1 = 0.7323 | 1005.35 ± 0.64 | 1469 ± 3.4
x1 = 0.779 | 1004.51 ± 0.65 | 1462.9 ± 3.4
x1 = 0.8279 | 1003.34 ± 0.66 | 1454.5 ± 3.4
x1 = 0.8535 | 1002.54 ± 0.66 | 1449.5 ± 3.4
x1 = 0.8763 | 1001.72 ± 0.66 | 1446.5 ± 3.4
x1 = 0.917 | 1001.03 ± 0.67 | 1441.1 ± 3.4
x1 = 0.9285 | 1000.72 ± 0.67 | 1440.2 ± 3.4
x1 = 1 | 999.06 ± 0.7 | 1431.9 ± 3.4

CN1CCCC1=O [N-methylpyrrolidone]
[1]
Details | mass density [kg/m3] | speed of sound [m/s]
– | 1028.23 ± 0.88 | 1531.5 ± 6.1
